Where two headings read alike, the source gives them in different places.

For 15 compounds, IC50 and melting point results are on record in patent publication US20200369626A1 (Washington University, priority 2019, published 2020).

In series [1] the target is T1, S1PR2 (Homo sapiens, UniProt O95136).
T1 construct: purchased
In words: competitive [^32P]S1P binding assay on cell membranes, S1PR2.
Procedure: The test compounds were dissolved in DMSO and diluted into test samples with increasing concentrations with assay buffer. Commercial cell membranes expressing recombinant human S1PR were diluted with assay buffer to make a 20-40 μg/mL of solution. […] The plate was incubated for 60 min at room temperature with shaking and terminated by collecting the membranes onto 96-well glass fiber (GF/B) filtration plates (Millipore, Billerica, Mass.). Each filter was washed with 200 μL of assay buffer for a total of five washes. […] The IC50 values were fitted from GraphPad Prism 6 using one site Nonlinear Regression.

Series [2] addresses T2, S1PR1 (Homo sapiens, UniProt P21453).
T2 construct: purchased
Kind of series: competitive [^32P]S1P binding assay on cell membranes, S1PR1. Particulars: Table 5. On the procedure: (§1) The test compounds were dissolved in DMSO and diluted into test samples with increasing concentrations with assay buffer. Commercial cell membranes expressing recombinant human S1PR were diluted with assay buffer to make a 20-40 μg/mL of solution. […] The plate was incubated for 60 min at room temperature with shaking and terminated by collecting the membranes onto 96-well glass fiber (GF/B) filtration plates (Millipore, Billerica, Mass.). Each filter was washed with 200 μL of assay buffer for a total of five washes. The filter bound radionuclide was measured by a Beckman LS 3801 scintillation counter using Cherenkov counting. The IC50 values were fitted from GraphPad Prism 6 using one site Nonlinear Regression.

The target in series [3] is T3, S1PR3 (Homo sapiens, UniProt Q99500).
T3 construct: purchased
In words: competitive [^32P]S1P binding assay on cell membranes, S1PR3. Particulars: Table 5. The method, then:
as §1

T2 sequence (P21453 whole entry): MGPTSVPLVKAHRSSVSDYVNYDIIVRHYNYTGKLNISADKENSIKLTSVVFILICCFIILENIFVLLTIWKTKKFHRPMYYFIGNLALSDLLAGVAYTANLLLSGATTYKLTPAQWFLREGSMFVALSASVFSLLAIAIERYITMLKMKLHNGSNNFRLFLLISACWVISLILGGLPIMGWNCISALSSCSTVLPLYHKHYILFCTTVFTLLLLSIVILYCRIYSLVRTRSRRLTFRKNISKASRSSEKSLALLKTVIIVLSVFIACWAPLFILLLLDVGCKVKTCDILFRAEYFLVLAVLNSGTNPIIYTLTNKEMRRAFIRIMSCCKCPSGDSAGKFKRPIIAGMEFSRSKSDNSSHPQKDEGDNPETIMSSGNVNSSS
T1 sequence (O95136 whole entry): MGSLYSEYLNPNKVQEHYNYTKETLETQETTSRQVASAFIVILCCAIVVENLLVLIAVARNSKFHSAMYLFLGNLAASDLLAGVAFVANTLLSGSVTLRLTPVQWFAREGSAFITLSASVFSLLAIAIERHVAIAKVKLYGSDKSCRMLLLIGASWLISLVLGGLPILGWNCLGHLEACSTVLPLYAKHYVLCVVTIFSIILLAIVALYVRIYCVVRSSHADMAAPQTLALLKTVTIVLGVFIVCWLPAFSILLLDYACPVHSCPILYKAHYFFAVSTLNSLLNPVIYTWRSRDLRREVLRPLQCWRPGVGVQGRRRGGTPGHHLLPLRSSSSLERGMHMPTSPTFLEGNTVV
T3 sequence (Q99500 whole entry): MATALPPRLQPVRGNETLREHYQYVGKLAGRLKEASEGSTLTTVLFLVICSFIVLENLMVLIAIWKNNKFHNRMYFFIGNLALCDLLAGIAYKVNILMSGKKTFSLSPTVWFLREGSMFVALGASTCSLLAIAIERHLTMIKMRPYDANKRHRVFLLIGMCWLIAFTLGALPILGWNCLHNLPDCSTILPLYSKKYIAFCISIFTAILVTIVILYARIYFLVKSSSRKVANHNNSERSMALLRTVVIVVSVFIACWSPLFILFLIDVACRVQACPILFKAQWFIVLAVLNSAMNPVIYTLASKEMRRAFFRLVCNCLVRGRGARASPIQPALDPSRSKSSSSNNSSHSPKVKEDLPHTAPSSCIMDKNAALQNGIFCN

Usually IC50 stands for the midpoint of a concentration-inhibition curve. A word on the melting point: it is the temperature of the solid-liquid transition. The compound `CCC(CC)CC1(O)CCN(C(=O)Nc2cc(Oc3ccc(F)cc3)cc(C(F)(F)F)c2)CC1` [Compound 17c, 4-(2-Ethylbutyl)-N-(3-(4-fluorophenoxy)-5-(trifluoromethyl)phenyl)-4-hydroxypiperidine-1-carboxamide] registered a melting point of 108 to 111 °C. Also, the IC50 in series [1] ([^32P]S1P competition, IC50 ± SD, second Table 1, read-out: S2PR2 IC50) was found to be 362 nM.
Compound `CC(C)CC1(O)CCN(C(=O)Nc2cc(Oc3ccc(F)cc3)cc(Oc3ccc(C(=O)NCCF)cc3)c2)CC1` [Compound 28f, N-(3-(4-((2-fluoroethyl)carbamoyl)phenoxy)-5-(4-fluorophenoxy)phenyl)-4-hydroxy-4-isobutylpiperidine-1-carboxamide] registered a melting point of 81 to 83 °C.
As for `CNC(=O)c1ccc(Oc2cc(NC(=O)N3CCC(O)(CC(C)C)CC3)cc(C(F)(F)F)c2)cc1` [TZ51-024], the IC50 in series [1] (Table 5, read-out: IC50 S1PR2) is 284 ± 27 nM; in series [2], greater than 1000 nM; in series [3] it was greater than 1000 nM.
Take `CC(C)CC1(O)CCN(C(=O)Nc2cc(Oc3ccc(F)cc3)cc(C(F)(F)F)c2)CC1` [TZ51-032]: the IC50 was 165 ± 35 nM in series [1] (Table 5, read-out: IC50 S1PR2); greater than 1000 nM in series [2]; greater than 1000 nM in series [3].
Regarding `CCC(CC)CC1(O)CCN(C(=O)Nc2cc(Oc3ccc(S(C)(=O)=O)cc3)cc(C(F)(F)F)c2)CC1` [TZ51-033], the IC50 in series [1] (Table 5, read-out: IC50 S1PR2) was 296 ± 32 nM; in series [2], greater than 1000 nM; in series [3], greater than 1000 nM.
With `CC(C)CC1(O)CCN(C(=O)Nc2cc(Oc3ccc(S(C)(=O)=O)cc3)cc(C(F)(F)F)c2)CC1` [TZ51-035], the IC50 was 270 ± 72 nM in series [1] (Table 5, read-out: IC50 S1PR2); greater than 1000 nM in series [2]; greater than 1000 nM in series [3].
For the compound `CCC(CC)CC1(O)CCN(C(=O)Nc2cc(Oc3ccc(F)cc3)cc(Oc3ccc(C(=O)NCCF)cc3)c2)CC1` [TZ57-028], the IC50 in series [2] and in series [3] was greater than 1000 nM in each case.
Regarding `CC(C)CC1(O)CCN(C(=O)Nc2cc(Oc3ccc(F)cc3)cc(Oc3ccc(C(=O)NCCF)cc3)c2)CC1` [TZ57-029], the IC50 was 195 ± 36 nM in series [1] (Table 5, read-out: IC50 S1PR2); greater than 1000 nM in series [2]; greater than 1000 nM in series [3].
On to `CC(C)CC1(O)CCN(C(=O)Nc2cc(Oc3ccc(F)cc3)cc(Sc3ccc(S(C)(=O)=O)cc3)c2)CC1` [TZ57-031], for which the IC50 in series [2] and in series [3] was greater than 1000 nM throughout.
As to `CCC(CC)CC1(O)CCN(C(=O)Nc2cc(Oc3ccc(F)cc3)cc(Sc3ccc(S(C)(=O)=O)cc3)c2)CC1` [TZ57-032], the IC50 in series [2] and in series [3] was greater than 1000 nM in each case.
With `CC(C)CC1(O)CCN(C(=O)Nc2cc(Oc3ccc(OCCF)cc3)cc(Oc3ccc(S(C)(=O)=O)cc3)c2)CC1` [TZ57-033], the IC50 in series [1] (Table 5, read-out: IC50 S1PR2) is 525 ± 119 nM; in series [2], greater than 1000 nM; in series [3] it was greater than 1000 nM.
On to `CCC(CC)CC1(O)CCN(C(=O)Nc2cc(Oc3ccc(OCCF)cc3)cc(Oc3ccc(S(C)(=O)=O)cc3)c2)CC1` [TZ57-034], for which the IC50 is 418 ± 118 nM in series [1] (Table 5, read-out: IC50 S1PR2); greater than 1000 nM in series [2]; greater than 1000 nM in series [3].
Take `CCC(CC)CC1(O)CCN(C(=O)Nc2cc(Oc3ccc(F)cc3)cc(Oc3ccc4c(c3)CCN(C)C4=O)c2)CC1` [TZ57-089]: the IC50 was 73 ± 11 nM in series [1] (Table 5, read-out: IC50 S1PR2); greater than 1000 nM in series [2]; greater than 1000 nM in series [3].
For the compound `CCC(CC)CC1(O)CCN(C(=O)Nc2cc(Oc3ccc(F)cc3)cc(Oc3ccc4c(c3)CCNC4=O)c2)CC1` [TZ57-090], the IC50 is 30 ± 4 nM in series [1] (Table 5, read-out: IC50 S1PR2); greater than 1000 nM in series [2]; greater than 1000 nM in series [3].
On to `COc1ccc(NC(=O)Cn2c(=O)c3ccccc3n(CC(=O)Nc3cc(Cl)c(OC)cc3OC)c2=O)cc1` [TZ59-104, N-(5-Chloro-2,4-dimethoxyphenyl)-2-(3-(2-((4-methoxyphenyl)amino)-2-oxoethyl)-2,4-dioxo-3,4-dihydroquinazolin-1(2H)-yl)acetamide], for which the IC50 in series [1] (Table 5, read-out: IC50 S1PR2) was 5.7 ± 0.5 nM; in series [2], greater than 1000 nM; in series [3] it was greater than 1000 nM.
